# Values joined by “and” are separate entries in the source; they are usually repeats but may differ in a detail not shown here. Identical values can stand only once.
# Key:
# TA98 = experiment: Ames Bacterial Reverse Mutation Assay
# Method: The Ames Bacterial Reverse Mutation (AB™) used five bacterial tester strains (TA97a, TA98, TA100, TA1535, WP2-uvrA).
# Tester strains were added to flasks containing nutrient broth and incubated at 37+2° C. overnight. The flasks were removed from the overnight incubation and the final concentration was determined (the OD was measured and determined whether growth was suitable for testing). Top agar was melted, and 2.0 mL was dispensed into heated culture tubes. The S9 mix (metabolic activation) was prepared and stored on ice. […] Each culture tube was vortexed and immediately poured onto the labeled minimal glucose agar plates. All plates were inverted and placed into a 37±1° C. incubator for 48-72 hours. The plates were counted via an automated colony counter or by hand and the background lawn was microscopically evaluated for any signs of toxicity. Genotypic control plates were prepared for each tester strain and incubated for 24-72 hours at 37±1° C.
# [1] = system: Panc-1 and MiaPaca-2 cells; experiment: 3D cell spheroid formation and viability; assay type: cell-based, human
# Method: 3D) cell spheroid formation studies: Pancreatic cancer cells were cultured in the ultra-low attachment plates in the pancreatic cancer organoid culture medium. In some studies, to observe the spheroid formation, DDX5 KO pancreatic cancer cells in the presence and absence of Agrin at a concentration of 2.5 μg/mL, 5 μg/mL and/or 10 μg/mL for 6-7 days were cultured. […] Representative images were take during this time and cell viability was determined by MTT assay.
# Agrin mRNA = experiment: Real-time RT-PCR of Agrin mRNA in Panc-1 and MiaPaca2 cells; assay type: cell-based, human
# Method: Real time quantitative (q) RT-PCR: Real time RT-PCR methods were described previously (9, 56). Pertinent to this study, total RNAs were extracted from cancer cells using TRI REAGENT RT (Molecular Research Center), and 5 μg per sample was converted to cDNA with anchored oligo (dT) primers using RevertAid First Strand cDNA Synthesis Kit (Thermo Fisher Scientific, Catalog No. K1622) following the manufacturer's instructions. Individual reverse transcription (RT) reactions of 20 μL were then diluted to 200 μL with sterile H2O. Five microliters of diluted RT reaction were used for real-time qPCR using Maxima SYBR Green/ROX qPCR Master Mix (2×, Thermo Fisher Scientific, Catalog No. K0223). The primers used in qPCR were as follows: 5′-GGC GCA CAG CAC AAG AGG-3′ (DDX5 qPCR-F, forward) and 5′-ATGGCAGGAAGCAAATAAGACAA-3′ (DDX5 qPCR-R, reverse); 5′-CTTCTGCTTCAAGGAGCTGGAAG-3′ (hsv5p2, survivin, forward) and 5′-GCACTTTCTTCGCAGTTTCCTC-3′ (hvs3p2, survivin, reverse); 5′-CCACAGCAAACCTCCTCACAG-3′ (myc5, c-Myc, forward) and 5′-GCAGGATAGTCCTTCCGAGTG-3′ (myc3, c-Myc, reverse); 5′-GTCTCCTCTGACTTCAACAGCG-3′ (hGAPDH-5, forward) and 5′-ACCACCCTGTTGCTGTAGCCAA-3′ (hGAPDH-3, reverse). GAPDH was used as an internal control. […] The data were analyzed using the Applied Biosystems 7300 Real Time PCR System and normalized to GAPDH.
# CYP3A4 mRNA = settings: human, hepatocytes
# Description: (2) CYP positive inducers (Table 58a) and Williams' Medium E (WME) were purchased from Sigma-Aldrich (St. Louis, MO, USA). Dulbecco's phosphate-buffered saline (DPBS, pH 7.4) was purchased from Invitrogen (Carlsbad, CA, USA). Hepatocyte culture medium (serum-free) for CYP induction was purchased from XenoTech (catalog #K2300, Lenexa, KS, USA). The CellTiter 96 AQueous ONE Solution Cell Proliferation Assay was obtained from Promega (Madison, WI, USA). All other chemicals and reagents were of analytical grade or higher. (3) Fresh human hepatocytes (Table 58b) seeded at ˜0.15 million cells/well in 48-well plates (˜0.75 million cells/mL) were purchased from Thermo Fisher Scientific (Grand Island, NY, USA) and BioreclamationIVT (Baltimore, MD, USA).
# Vehicle controls were treated in parallel with hepatocyte culture medium. […] (2) After the CYP induction treatment, the cells were used for a cell viability assay. […] The absorbance of formazan, which is proportional to the number of viable cells, was measured spectrophotometrically using the CellTiter 96 AQueous ONE Solution Cell Proliferation Assay. […] The concentration of RNA was determined using a Qubit Fluorometer with a Qubit RNA HS assay kit (Invitrogen). cDNA was synthesized from up to 1 μg of the total RNA harvested from the cells using a QuantiTect RT kit (Qiagen). […]
# ABCG2/BCRP = target: T1, ABCG2/BCRP (Homo sapiens, UniProt Q9UNQ0); settings: Caco-2; without and with Ko143
# T1 sequence (Q9UNQ0 1-655): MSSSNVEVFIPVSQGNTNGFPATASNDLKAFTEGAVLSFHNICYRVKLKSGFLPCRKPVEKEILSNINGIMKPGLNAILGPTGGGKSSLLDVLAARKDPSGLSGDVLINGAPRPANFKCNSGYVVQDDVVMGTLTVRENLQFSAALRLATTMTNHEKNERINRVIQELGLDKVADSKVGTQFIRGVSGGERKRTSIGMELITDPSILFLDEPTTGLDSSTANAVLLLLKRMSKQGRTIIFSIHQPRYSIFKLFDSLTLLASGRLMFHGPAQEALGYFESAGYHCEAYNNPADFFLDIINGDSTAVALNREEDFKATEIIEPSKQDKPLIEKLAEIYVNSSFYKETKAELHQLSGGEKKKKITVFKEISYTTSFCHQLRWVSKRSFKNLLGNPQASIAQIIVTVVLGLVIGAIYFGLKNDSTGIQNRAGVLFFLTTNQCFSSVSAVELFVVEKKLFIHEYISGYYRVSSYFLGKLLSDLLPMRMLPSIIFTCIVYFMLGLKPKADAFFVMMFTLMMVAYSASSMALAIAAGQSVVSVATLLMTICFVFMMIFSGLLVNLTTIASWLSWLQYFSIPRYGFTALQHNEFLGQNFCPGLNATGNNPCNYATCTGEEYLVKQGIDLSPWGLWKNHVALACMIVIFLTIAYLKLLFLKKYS
# Method: Cell monolayers were grown to confluence on collagen-coated, microporous, polycarbonate membranes in 12-well Costar® plates. […] The Transwell permeability assay buffer was Hanks' balanced salt solution (HBSS) containing 10 mM HEPES and 15 mM glucose at a pH of 7.4. The buffer in the receiver chamber also contained 1% bovine serum albumin. […] Cell monolayers were dosed on the apical side (A-to-B) or basolateral side (B-to-A) and incubated at 37° C. with 5% CO2 in a humidified incubator. Samples were taken from the donor and receiver chambers at 120 minutes. Each determination was performed in duplicate. The flux of lucifer yellow post-experimentally was also measured for each monolayer to ensure no damage was inflicted to the cell monolayers during the flux period. All samples were assayed by LC-MS/MS using electrospray ionization. […] The apparent permeability (Papp) and percent recovery were calculated as follows:
# Where, dCr/dt is the slope of the cumulative concentration in the receiver compartment versus time in μM s^−1; Vr is the volume of the receiver compartment in cm^3; Vd is the volume of the donor compartment in cm^3; A is the area of the insert (1.13 cm^2 for 12-well Transwell); CA is the average of the nominal dosing concentration and the measured 120 minute donor concentration in μM; CN is the nominal concentration of the dosing solution in μM; Cr^final is the cumulative receiver concentration in M at the end of the incubation period; and Cd^final is the concentration of the donor in μM at the end of the incubation period.
# Efflux ratio (ER) is defined as Papp (B-to-A)/Papp (A-to-B).
smiles,measurement,setting,value
CCC1(O)C(=O)OCc2c1cc1n(c2=O)Cc2cc3cc4c(cc3nc2-1)OCO4 (centres unmarked) [FL118],bacterial strain mutation,TA98,does not induce
same,mean revertant colonies over negative control,TA98; +/− S9,less than 2 fold
same,Background Lawn Code,"TA98; TA98, 0.010 μM +S9",1
same,Colony Counts Average,"TA98; TA98, 0.010 μM +S9",38
same,Colony Counts Replicate 1-3,"TA98; TA98, 0.010 μM +S9",32 and 37 and 45
same,Background Lawn Code,"TA98; TA98, 0.010 μM −S9",1
same,Colony Counts Average,"TA98; TA98, 0.010 μM −S9",38
same,Colony Counts Replicate 1-3,"TA98; TA98, 0.010 μM −S9",29 and 53 and 32
same,Background Lawn Code,"TA98; TA98, 0.10 μM +S9",1
same,Colony Counts Average,"TA98; TA98, 0.10 μM +S9",44
same,Colony Counts Replicate 1-3,"TA98; TA98, 0.10 μM +S9",45 and 41 and 46
same,Background Lawn Code,"TA98; TA98, 0.10 μM −S9",1
same,Colony Counts Average,"TA98; TA98, 0.10 μM −S9",24
same,Colony Counts Replicate 1-3,"TA98; TA98, 0.10 μM −S9",36 and 20 and 15
same,Background Lawn Code,"TA98; TA98, 1.0 μM +S9",1
same,Colony Counts Average,"TA98; TA98, 1.0 μM +S9",44
same,Colony Counts Replicate 1-3,"TA98; TA98, 1.0 μM +S9",35 and 45 and 52
same,Background Lawn Code,"TA98; TA98, 1.0 μM −S9",1
same,Colony Counts Average,"TA98; TA98, 1.0 μM −S9",23
same,Colony Counts Replicate 1-3,"TA98; TA98, 1.0 μM −S9",24 and 26 and 19
same,3D spheroid formation,[1],inhibited
same,cell viability in 3D culture,[1],inhibited in a FL118 concentration-dependent manner
same,Agrin mRNA,Agrin mRNA,inhibits Agrin mRNA
same,minor induction of CYP3A4,CYP3A4 mRNA,5-8%
same,minor induction of CYP3A4 mRNA,CYP3A4 mRNA,FL118 induces a minor induction (5-8%) of CYP3A4
same,BCRP Substrate Classification,ABCG2/BCRP,"Negative (ER≥2.0 without Ko143, and reduced by <50% with Ko143: Negative)"
